Source: US7414061B2, “Aryl-isoxazol-4-yl-imidazole derivatives” (Hoffmann-La Roche Inc., priority 2005, dated 2008)
Like-named read-outs stand apart in the source and are kept apart here.

Biological target: T1, GABA A receptor α5β3γ2 (hα5) (Homo sapiens, UniProt P18507+P31644)
T1 construct: expressed in transfected cells; host or cells: HEK293 (transiently transfected), membrane preparation
Experiment: [3H]flumazenil competition binding assay, human GABA A α5β3γ2
Method: The affinity of compounds at GABA A receptor subtypes was measured by competition for [3H]flumazenil (85 Ci/mmol; Roche) binding to HEK293 cells expressing rat (stably transfected) or human (transiently transfected) receptors of composition α1β3γ2, α2β3γ2, α3β3γ2 and α5β3γ2.
Cell pellets were suspended in Krebs-tris buffer (4.8 mM KCl, 1.2 mM CaCl2, 1.2 mM MgCl2, 120 mM NaCl, 15 mM Tris; pH 7.5; binding assay buffer), homogenized by polytron for ca. 20 sec on ice and centrifuged for 60 min at 4° C. (50000 g; Sorvall, rotor: SM24=20000 rpm). The cell pellets were resuspended in Krebs-tris buffer and homogenized by polytron for ca. 15 sec on ice. Protein was measured (Bradford method, Bio-Rad) and aliquots of 1 mL were prepared and stored at −80° C.
Radioligand binding assays were carried out in a volume of […] (96-well plates) which contained […] of cell membranes, [3H]flumazenil at a concentration of 1 nM for α1, α2, α3 subunits and 0.5 nM for α5 subunits and the test compound in the range of […]. Nonspecific binding was defined by 10^−5 M diazepam and typically represented less than 5% of the total binding. Assays were incubated to equilibrium for 1 hour at 4° C. and harvested onto GF/C uni-filters (Packard) by filtration using a Packard harvester and washing with ice-cold wash buffer (50 mM Tris; pH 7.5). After drying, filter-retained radioactivity was detected by liquid scintillation counting. Ki values were calculated using Excel-Fit (Microsoft) and are the means of two determinations.

[1] = displacement of [3H]flumazenil (0.5 nM) from HEK293 cell membranes expressing α5β3γ2, means of two determinations, read-out: Ki[nM] hα5

Row | Compound | Ki [1] [nM] | Ki [nM]
1 | 1-{4-(4-[5-Ethyl-3-(4-fluoro-phenyl)-isoxazol-4-yl]-imidazol-1-yl}-phenyl)-ethanone [Example 132] | 4.7 | –
2 | 4-{4-[3-(3-Fluoro-phenyl)-5-methyl-isoxazol-4-yl]-imidazol-1-yl}-N-[2-(1H-imidazol-4-yl)-ethyl]-benzamide [Example 104] | 31.5 | –
3 | 5-Ethyl-4-[1-(4-nitro-phenyl)-1H-imidazol-4-yl]-3-phenyl-isoxazole [Example 31] | 5 | –
4 | Cc1onc(-c2ccccc2)c1-c1cn(-c2ccccc2)cn1 [Example 2, 5-Methyl-3-phenyl-4-(1-phenyl-1H-imidazol-4-yl)-isoxazole] | 21.7 | –
5 | Cc1onc(-c2ccccc2)c1-c1cn(-c2ccc(F)cc2)cn1 [Example 3, 4-[1-(4-Fluoro-phenyl)-1H-imidazol-4-yl]-5-methyl-3-phenyl-isoxazole] | 29.6 | –
6 | Cc1onc(-c2ccccc2)c1-c1cn(-c2cccc(F)c2)cn1 [Example 4, 4-[1-(3-Fluoro-phenyl)-1H-imidazol-4-yl]-5-methyl-3-phenyl-isoxazole] | 33.1 | –
7 | Cc1onc(-c2ccccc2)c1-c1cn(-c2cccc(Cl)c2)cn1 [Example 5, 4-[1-(3-Chloro-phenyl)-1H-imidazol-4-yl]-5-methyl-3-phenyl-isoxazole] | 29.1 | –
8 | Cc1onc(-c2ccccc2)c1-c1cn(-c2cccc(Br)c2)cn1 [Example 7, 4-[1-(3-Bromo-phenyl)-1H-imidazol-4-yl]-5-methyl-3-phenyl-isoxazole] | 30.9 | –
9 | CCCc1ccc(-n2cnc(-c3c(-c4ccccc4)noc3C)c2)cc1 [Example 9, 5-Methyl-3-phenyl-4-[1-(4-propyl-phenyl)-1H-imidazol-4-yl]-isoxazole] | 25.5 | –
10 | Cc1onc(-c2ccccc2)c1-c1cn(-c2cccc(C(F)(F)F)c2)cn1 [Example 10, 5-Methyl-3-phenyl-4-[1-(3-trifluoromethyl-phenyl)-1H-imidazol-4-yl]-isoxazole] | 20.4 | –
11 | COC(=O)c1cccc(-n2cnc(-c3c(-c4ccccc4)noc3C)c2)c1 [Example 11, 3-[4-(5-Methyl-3-phenyl-isoxazol-4-yl)-imidazol-1-yl]-benzoic acid methyl ester] | 15.1 | –
12 | CC(=O)c1ccc(-n2cnc(-c3c(-c4ccccc4)noc3C)c2)cc1 [Example 12, 1-{4-[4-(5-Methyl-3-phenyl-isoxazol-4-yl)-imidazol-1-yl]-phenyl}-ethanone] | 5.5 | –
13 | Cc1onc(-c2ccccc2)c1-c1cn(-c2ccc([N+](=O)[O-])cc2)cn1 [Example 13, 5-Methyl-4-[1-(4-nitro-phenyl)-1H-imidazol-4-yl]-3-phenyl-isoxazole] | 11.9 | –
14 | Cc1onc(-c2ccccc2)c1-c1cn(-c2ccc(C(F)(F)F)cc2)cn1 [Example 14, 5-Methyl-3-phenyl-4-[1-(4-trifluoromethyl-phenyl)-1H-imidazol-4-yl]-isoxazole] | 30.7 | –
15 | Cc1onc(-c2ccccc2)c1-c1cn(-c2ccc(C#N)cc2)cn1 [Example 16, 4-[4-(5-Methyl-3-phenyl-isoxazol-4-yl)-imidazol-1-yl]-benzonitrile] | 15.1 | –
16 | Cc1onc(-c2ccccc2)c1-c1cn(-c2cccc(C#N)c2)cn1 [Example 17, 3-[4-(5-Methyl-3-phenyl-isoxazol-4-yl)-imidazol-1-yl]-benzonitrile] | 27 | –
17 | COc1ccc(-n2cnc(-c3c(-c4ccccc4)noc3C)c2)cc1 [Example 18, 4-[1-(4-Methoxy-phenyl)-1H-imidazol-4-yl]-5-methyl-3-phenyl-isoxazole] | 21 | –
18 | CCOc1ccc(-n2cnc(-c3c(-c4ccccc4)noc3C)c2)cc1 [Example 19, 4-[1-(4-Ethoxy-phenyl)-1H-imidazol-4-yl]-5-methyl-3-phenyl-isoxazole] | 28.7 | –
19 | CCOc1ccccc1-n1cnc(-c2c(-c3ccccc3)noc2C)c1 [Example 20, 4-[1-(2-Ethoxy-phenyl)-1H-imidazol-4-yl]-5-methyl-3-phenyl-isoxazole] | 32.4 | –
20 | CSc1ccc(-n2cnc(-c3c(-c4ccccc4)noc3C)c2)cc1 [Example 21, 5-Methyl-4-[1-(4-methylsulfanyl-phenyl)-1H-imidazol-4-yl]-3-phenyl-isoxazole] | 31.5 | –

Row | Compound | Ki [1] [nM] | Ki [nM]
21 | Cc1onc(-c2ccccc2)c1-c1cn(-c2cc(F)cc(F)c2)cn1 [Example 24, 4-[1-(3,5-Difluoro-phenyl)-1H-imidazol-4-yl]-5-methyl-3-phenyl-isoxazole] | 29 | –
22 | CCc1onc(-c2ccccc2)c1-c1cn(-c2ccc(C(C)=O)cc2)cn1 [Example 30, 1-{4-[4-(5-Ethyl-3-phenyl-isoxazol-4-yl)-imidazol-1-yl]-phenyl}-ethanone] | 9.9 | –
23 | Cc1onc(-c2ccccc2)c1-c1cn(-c2ccccn2)cn1 [Example 32, 2-[4-(5-Methyl-3-phenyl-isoxazol-4-yl)-imidazol-1-yl]-pyridine] | 19.3 | –
24 | Cc1onc(-c2ccccc2)c1-c1cn(-c2ncccn2)cn1 [Example 33, 2-[4-(5-Methyl-3-phenyl-isoxazol-4-yl)-imidazol-1-yl]-pyrimidine] | 15 | –
25 | CC(=O)c1ccc(-n2cnc(-c3c(-c4ccccc4F)noc3C)c2)cc1 [Example 36, 1-(4-{4-[3-(2-Fluoro-phenyl)-5-methyl-isoxazol-4-yl]-imidazol-1-yl}-phenyl)-ethanone] | 7.8 | –
26 | COc1ccc(-n2cnc(-c3c(-c4ccccc4F)noc3C)c2)cc1 [Example 38, 3-(2-Fluoro-phenyl)-4-[1-(4-methoxy-phenyl)-1H-imidazol-4-yl]-5-methyl-isoxazole] | 24 | –
27 | Cc1onc(-c2ccccc2F)c1-c1cn(-c2ncccn2)cn1 [Example 39, 2-{4-[3-(2-Fluoro-phenyl)-5-methyl-isoxazol-4-yl]-imidazol-1-yl}-pyrimidine] | 18.3 | –
28 | CC(=O)c1ccc(-n2cnc(-c3c(-c4ccc(F)cc4)noc3C)c2)cc1 [Example 46, 1-(4-{4-[3-(4-Fluoro-phenyl)-5-methyl-isoxazol-4-yl]-imidazol-1-yl}-phenyl)-ethanone] | 4.7 | –
29 | Cc1onc(-c2ccc(F)cc2)c1-c1cn(-c2ccc([N+](=O)[O-])cc2)cn1 [Example 47, 3-(4-Fluoro-phenyl)-5-methyl-4-[1-(4-nitro-phenyl)-1H-imidazol-4-yl]-isoxazole] | 16.6 | –
30 | Cc1onc(-c2ccc(F)cc2)c1-c1cn(-c2ncccn2)cn1 [Example 48, 2-{4-[3-(4-Fluoro-phenyl)-5-methyl-isoxazol-4-yl]-imidazol-1-yl}-pyrimidine] | 17.6 | –
31 | CC(=O)c1ccc(-n2cnc(-c3c(-c4ccc(Br)cc4)noc3C)c2)cc1 [Example 49, 1-(4-{4-[3-(4-Bromo-phenyl)-5-methyl-isoxazol-4-yl]-imidazol-1-yl}-phenyl)-ethanone] | 9.1 | –
32 | Cc1onc(-c2ccc(Br)cc2)c1-c1cn(-c2ccc([N+](=O)[O-])cc2)cn1 [Example 50, 3-(4-Bromo-phenyl)-5-methyl-4-[1-(4-nitro-phenyl)-1H-imidazol-4-yl]-isoxazole] | 21.6 | –
33 | Cc1onc(-c2ccc(Br)cc2)c1-c1cn(-c2ncccn2)cn1 [Example 51, 2-{4-[3-(4-Bromo-phenyl)-5-methyl-isoxazol-4-yl]-imidazol-1-yl}-pyrimidine] | 28.5 | –
34 | CC(=O)c1ccc(-n2cc(-c3c(-c4ccccc4)noc3C)nc2COCc2ccccc2)cc1 [Example 62, 1-{4-[2-Benzyloxymethyl-4-(5-methyl-3-phenyl-isoxazol-4-yl)-imidazol-1-yl]-phenyl}-ethanone] | 5.4 | –
35 | Cc1onc(-c2ccccc2)c1-c1cn(-c2ccc([N+](=O)[O-])cc2)c(COCc2ccccc2)n1 [Example 63, 4-[2-Benzyloxymethyl-1-(4-nitro-phenyl)-1H-imidazol-4-yl]-5-methyl-3-phenyl-isoxazole] | 14.4 | –
36 | Cc1onc(-c2ccccc2)c1-c1cn(-c2ccc(C(F)(F)F)cc2)c(COCc2ccccc2)n1 [Example 64, 4-[2-Benzyloxymethyl-1-(4-trifluoromethyl-phenyl)-1H-imidazol-4-yl]-5-methyl-3-phenyl-isoxazole] | 14.7 | –
37 | Cc1onc(-c2ccccc2)c1-c1cn(-c2ccc(C#N)cc2)c(COCc2ccccc2)n1 [Example 65, 4-[2-Benzyloxymethyl-4-(5-methyl-3-phenyl-isoxazol-4-yl)-imidazol-1-yl]-benzonitrile] | 19.1 | –
38 | Cc1onc(-c2ccccc2)c1-c1cn(-c2ncccn2)c(COCc2ccccc2)n1 [Example 66, 2-[2-Benzyloxymethyl-4-(5-methyl-3-phenyl-isoxazol-4-yl)-imidazol-1-yl]-pyrimidine] | 6.7 | –
39 | Cc1onc(-c2ccccc2)c1-c1cn(-c2ccc(C(=O)NCC3CC3)cc2)cn1 [Example 71, N-Cyclopropylmethyl-4-[4-(5-methyl-3-phenyl-isoxazol-4-yl)-imidazol-1-yl]-benzamide] | 16.7 | –
40 | C#CCNC(=O)c1ccc(-n2cnc(-c3c(-c4ccccc4)noc3C)c2)cc1 [Example 72, 4-[4-(5-Methyl-3-phenyl-isoxazol-4-yl)-imidazol-1-yl]-N-prop-2-ynyl-benzamide] | – | 13.2
